This note sets out measurements from PMC6515668, “Liposomes for effective drug delivery to the ocular posterior chamber” (Journal of Nanobiotechnology, 2019).

Data set [1] has as its system ARPE-19. The data set can be described thus: In vitro anti-ROS efficacy (H2O2-exposed cells, DCFH-DA). In kind it is cell-based, human. Conditions: ARPE-19 exposed to 200 μM H2O2 for 24 h, versus model group. The procedure:
Human retinal pigment epithelial cells (ARPE-19) were maintained in Dulbecco’s modified Eagle’s medium/Ham’s F12 (Gibco) supplemented with 10% fetal bovine serum (Gibco), 100 IU/mL penicillin (Gibco), and 100 μg/mL streptomycin (Gibco) at 37 °C in an atmosphere of 5% CO2. After incubation, cells were exposed to 200 μM H2O2 for 24 h, and fluorescent probes (Beyotime Biotechnology, China) were used to measure intracellular ROS levels (DCFH-DA, 10 mM) according to the manufacturer’s instructions. Before application, CBLs and P-CBLs of a certain volume were diluted with complete culture medium. The final concentration of BBH was 0.0040 μM and 0.0020 μM for CHR in CBLs groups, while 0.0044 μM of BBH, 0.0018 μM for CHR for P-CBLs, respectively. The final drug concentration of CBs was the same as CBLs group. Treated cells were loaded with fluorescent probes in a serum-free medium for 20 min at 37 °C. Then, photographs were taken using a long-term real-time dynamic live cell imaging analyzer.

A short description of data set [2]: Microdialysis probe recovery and stability (dialysis and retrodialysis). Conditions: retrodialysis, 7 h. The procedure:
Normal saline containing 30% ethanol was chosen as the perfusate for two drugs with opposing polarity, and the flow rate was 1.5 μL/min according to our previous study. Then, an in vitro RR% evaluation was performed via dialysis and retrodialysis. The in vivo stability study was performed using a retrodialysis method, which provided the evidence for the microdialysis method that was used for the in vivo pharmacokinetics study.

Each structure is given as a SMILES string. Where a name gives a salt, the structure may show the parent alone.

Consider `COc1ccc2cc3[n+](cc2c1OC)CCc1cc2c(cc1-3)OCO2` [BBH, berberine hydrochloride], for which the “intracellular ROS levels (relative fluorescence ratio)” value in data set [1] is recorded as “could reduce intracellular ROS levels effectively”. Further, in data set [2], the “stability in in vivo analysis” value was “good stability for 7 h”.

Regarding `Cc1cc(O)c2c(c1)C(=O)c1cccc(O)c1C2=O` [CHR, chrysophanol], the “intracellular ROS levels (relative fluorescence ratio)” value in data set [1] is “could reduce intracellular ROS levels effectively”. The “stability in in vivo analysis” value in data set [2] is “good stability for 7 h”.
